Assay results from patent publication US20250381273A1, “Augmenting Mitochondria in Immune Cells for Improved Cancer Immunotherapy” (LEIBNIZ-INSTITUT FÜR IMMUNTHERAPIE (LIT), priority 2022, published 2025).

How the values were obtained:
[1] = tested on: mouse Mito-DsRed BMSCs or CD8+ T cells; assay: Inhibitor drug treatment study, mouse co-culture; format: cell-based; conditions: 1-10 μM, data not shown
Description: (§1) For pharmacological inhibition studies, both mouse and human Mito-DsRed BMSCs or CD8+ T cells were treated with 1-10 μM of farnesyltransferase/geranylgeranyltransferase 1 inhibitor (L-778123) (Biomol) incubated separately in their respective basal media for 7 hrs before or during co-culture. Cell viability of the different drug treatments was determined using the Trypan Blue exclusion test and quantified manually using a hemacytometer. All experiments were performed on at least 3-6 biological replicates/donors per condition.

[2] = tested on: nanotube-mediated mitochondria transfer; conditions: Nature Nanotechnology (2022) 17, 98-106; cited from earlier work
[3] = tested on: human Mito-DsRed BMSCs or CD8+ T cells; assay: Inhibitor drug treatment study, human co-culture; format: cell-based; conditions: 1-10 μM, data not shown
Description: as §1

For `N#Cc1ccc(Cn2cncc2CN2CCN(c3cccc(Cl)c3)C(=O)C2)cc1` [L-788,123], the “mitochondrial transfer in co-culture” value [1] is given as “confirmed that TNTs is a primary mediator of mitochondrial transfer”, the nanotube-mediated mitochondria transfer [2] is given as “partially block” and the “mitochondrial transfer in co-culture” value [3] is given as “confirmed that TNTs is a primary mediator of mitochondrial transfer”.
